Measured values published in ChEMBL document CHEMBL1201862, “PubChem BioAssay data set” (2004).
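96-well plates; 48 h exposure; 5 concentrations. Endpoints by linear interpolation between flanking doses. Not reached: highest tested concentration assigned. GI50 is the concentration that inhibits growth by half.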 Active and inactive are the calls of the source. Rule as the data show it: active = GI50 up to about 1.1 µM and inactive = higher.

Experiments:
Assay in all cases: NCI anticancer screen, dose series, 48 h
Malme-3M = test system: Malme-3M
IGROV-1 = test system: IGROV-1
HOP-92 = test system: HOP-92
HOP-62 = test system: HOP-62
SF-539 = test system: SF-539
A549 = test system: A549
UACC-257 = test system: UACC-257
NCI-H522 = test system: NCI-H522
EKVX = test system: EKVX
SNB-75 = test system: SNB-75
SK-OV-3 = test system: SK-OV-3
HT-29 = test system: HT-29
COLO 205 = test system: COLO 205
HL-60 = test system: HL-60
SK-MEL-28 = test system: SK-MEL-28
OVCAR-5 = test system: OVCAR-5
CAKI-1 = test system: CAKI-1
LOX IMVI = test system: LOX IMVI

| SMILES | GI50 (Malme-3M) | GI50 (IGROV-1) | GI50 (HOP-92) | GI50 (HOP-62) | GI50 (SF-539) | GI50 (A549) | GI50 (UACC-257) | GI50 (NCI-H522) | GI50 (EKVX) | GI50 (SNB-75) | GI50 (SK-OV-3) | GI50 (HT-29) | GI50 (COLO 205) | GI50 (HL-60) | GI50 (SK-MEL-28) | GI50 (OVCAR-5) | GI50 (CAKI-1) | GI50 (LOX IMVI) |
| --- | --- | --- | --- | --- | --- | --- | --- | --- | --- | --- | --- | --- | --- | --- | --- | --- | --- | --- |
| COC(=O)N1C=CC2=C(C)C3Nc4ccccc4C3C(C)=C2C1 (centres undefined) | 3.03 µM (inactive) | 1.47 µM (inactive) | 2.09 µM (inactive) | 1.73 µM (inactive) | 4.2 µM (inactive) | 1.69 µM (inactive) | 3.21 µM (inactive) | 1.49 µM (inactive) | 1.25 µM (inactive) | 2.24 µM (inactive) | 1.86 µM (inactive) | 1.96 µM (inactive) | 1.15 µM (inactive) | 1.98 µM (inactive) | 7.29 µM (inactive) | 2.72 µM (inactive) | 5.35 µM (inactive) | 2.23 µM (inactive) |
| O=C1c2cccc3cccc(c23)C(=O)N1CCN(CCO)CCO | 21.2 µM (inactive) | 32.7 µM (inactive) | 26.7 µM (inactive) | 31.7 µM (inactive) | 23.5 µM (inactive) | 27.2 µM (inactive) | 22.5 µM (inactive) | – | 31.1 µM (inactive) | 30.1 µM (inactive) | 55.1 µM (inactive) | 27.9 µM (inactive) | 15.6 µM (inactive) | > 100 µM (inactive) | 35.8 µM (inactive) | 20.9 µM (inactive) | – | 18 µM (inactive) |
| Brc1cc2c(cc1C1SCCS1)OCO2 | > 100 µM (inactive) | > 100 µM (inactive) | – | > 100 µM (inactive) | > 100 µM (inactive) | > 100 µM (inactive) | > 100 µM (inactive) | > 100 µM (inactive) | > 100 µM (inactive) | > 100 µM (inactive) | > 100 µM (inactive) | > 100 µM (inactive) | – | 96.4 µM (inactive) | > 100 µM (inactive) | > 100 µM (inactive) | > 100 µM (inactive) | 81.7 µM (inactive) |
| CC1(C)C(=O)N(CCCCCCN2C(=O)C(C)(C)c3ccccc32)c2ccccc21 | 25.9 µM (inactive) | 88.3 µM (inactive) | 42.8 µM (inactive) | 80.7 µM (inactive) | > 100 µM (inactive) | 43.4 µM (inactive) | 21.8 µM (inactive) | – | 38.1 µM (inactive) | 39.1 µM (inactive) | > 100 µM (inactive) | 19 µM (inactive) | 22.1 µM (inactive) | 2.04 µM (inactive) | 47.2 µM (inactive) | 80.5 µM (inactive) | 62.4 µM (inactive) | 22 µM (inactive) |
| Cn1nc(-c2ccccc2)c(C(=O)/C=C/c2ccc(F)cc2)c(N2CCOCC2)c1=O | – | 20.3 µM (inactive) | 15.2 µM (inactive) | – | 17.3 µM (inactive) | 17.4 µM (inactive) | – | 14.5 µM (inactive) | 25.7 µM (inactive) | – | 32.7 µM (inactive) | 15.9 µM (inactive) | 18.2 µM (inactive) | 14.6 µM (inactive) | 15.8 µM (inactive) | – | > 10 µM (inactive) | 21.1 µM (inactive) |
| N#Cc1c2c(c(Cl)n3c1nc1ccccc13)CCCC2 | 13.2 µM (inactive) | 2.69 µM (inactive) | – | > 10 µM (inactive) | 3.95 µM (inactive) | 4.25 µM (inactive) | 2.05 µM (inactive) | – | 17.8 µM (inactive) | 17.2 µM (inactive) | 2.48 µM (inactive) | 1.11 µM (active) | 5.12 µM (inactive) | 1.66 µM (inactive) | 1.99 µM (inactive) | 18.4 µM (inactive) | 2.76 µM (inactive) | 1.9 µM (inactive) |
| Nn1c(=O)n(Cc2ccccc2)n(-c2ccccc2)c1=O | > 100 µM (inactive) | > 100 µM (inactive) | > 100 µM (inactive) | > 100 µM (inactive) | > 100 µM (inactive) | > 100 µM (inactive) | > 100 µM (inactive) | > 100 µM (inactive) | – | 74.1 µM (inactive) | > 100 µM (inactive) | > 100 µM (inactive) | – | > 100 µM (inactive) | > 100 µM (inactive) | > 100 µM (inactive) | > 100 µM (inactive) | > 100 µM (inactive) |
| COc1ccc(CN2C(=O)C(Cc3cc(OC)c(OC)c(C)c3OC)NC(=O)/C2=C/c2cc(OC)c(OC)c(C)c2OC)cc1 (centres undefined) | 22.6 µM (inactive) | 53.2 µM (inactive) | 29 µM (inactive) | 50.9 µM (inactive) | 45.6 µM (inactive) | 37.1 µM (inactive) | 37.5 µM (inactive) | 18.5 µM (inactive) | 48.1 µM (inactive) | 33.5 µM (inactive) | 34 µM (inactive) | 24.2 µM (inactive) | 22.8 µM (inactive) | 18.3 µM (inactive) | 59.8 µM (inactive) | 44.9 µM (inactive) | – | 41.8 µM (inactive) |
| O=c1c2c([nH]c3cc4c(cc13)OCO4)-c1ccccc1C2 | 23.2 µM (inactive) | 17.7 µM (inactive) | 18.3 µM (inactive) | 23.4 µM (inactive) | 18.1 µM (inactive) | 27.1 µM (inactive) | – | 22.4 µM (inactive) | 29.6 µM (inactive) | – | 31.3 µM (inactive) | 17.7 µM (inactive) | 17 µM (inactive) | 27.7 µM (inactive) | 22.6 µM (inactive) | – | 39 µM (inactive) | 15.6 µM (inactive) |
| CC(=O)c1ccc(NC(=O)/C(CC(=O)c2sc(-c3cccnc3)nc2C)=N/NC(N)=O)cc1 | > 100 µM (inactive) | > 100 µM (inactive) | – | > 10 µM (inactive) | > 10 µM (inactive) | 22.5 µM (inactive) | > 10 µM (inactive) | 98.4 µM (inactive) | 2.71 µM (inactive) | – | > 100 µM (inactive) | > 100 µM (inactive) | 18.2 µM (inactive) | 29.5 µM (inactive) | > 100 µM (inactive) | 45.1 µM (inactive) | 23.2 µM (inactive) | > 100 µM (inactive) |
| CCOc1ccccc1NC(=O)CC1SC(Nc2ccc([N+](=O)[O-])cc2)=NC1=O (centres undefined) | 22.5 µM (inactive) | 23.2 µM (inactive) | 10.2 µM (inactive) | 18.5 µM (inactive) | – | 18.5 µM (inactive) | 17.3 µM (inactive) | – | 27.5 µM (inactive) | 23.2 µM (inactive) | – | 21.7 µM (inactive) | 19.5 µM (inactive) | 32.6 µM (inactive) | 25.3 µM (inactive) | 29.1 µM (inactive) | – | 18.5 µM (inactive) |
| CN(C)CCNC(=O)c1ccc(Cl)c2c(Nc3ccc(S(=O)(=O)N=C(N)N)cc3)c3ccccc3nc12 | – | 3.55 µM (inactive) | – | 10.1 µM (inactive) | 3.81 µM (inactive) | 3.33 µM (inactive) | – | 0.603 µM (active) | 11.4 µM (inactive) | > 10 µM (inactive) | – | 2.05 µM (inactive) | 3.78 µM (inactive) | 1.7 µM (inactive) | 11.2 µM (inactive) | > 10 µM (inactive) | – | 1.75 µM (inactive) |
| Cc1c(C(=O)O)oc2ccc([N+](=O)[O-])cc12 | > 100 µM (inactive) | > 100 µM (inactive) | 72.4 µM (inactive) | > 100 µM (inactive) | > 100 µM (inactive) | > 100 µM (inactive) | > 100 µM (inactive) | > 100 µM (inactive) | > 100 µM (inactive) | – | > 100 µM (inactive) | > 100 µM (inactive) | > 100 µM (inactive) | > 100 µM (inactive) | > 100 µM (inactive) | > 100 µM (inactive) | > 100 µM (inactive) | > 100 µM (inactive) |
